Where two headings read alike, the source gives them in different places.
What was measured:
HCT116 cells = format: cell-based; conditions: 72 hours drug incubation, colonies counted after 7 days
Description: This example provides directions for growing cells and testing compounds of the invention for their effect on the growth of the cells.
Cell Colony Formation Assay
Four hundred cells (HCT 116, PC-3) or five hundred cells (VM46) were plated in 60 mm Petri dishes containing 2.7 ml of medium (modified McCoy's 5a medium) containing 10% fetal bovine serum and 100 units/ml penicillin and 100 mg/ml streptomycin. The cells were incubated in a CO2 incubator at 37° C. for 5 hours for attachment to the bottom of Petri dishes. Drugs were made fresh in medium at ten times the final concentration, and then 0.3 ml of this stock solution was added to the 2.7 ml of medium in the dish. The cells were then incubated with drugs for 72 hours at 37° C. At the end of the incubation the drug-containing media were decanted, the dishes were rinsed with 4 ml of Hank's Balance Salt Solution (HBSS), 5 ml of fresh medium was added, and the dishes were returned to the incubator for colony formation.
Values of ID50 (the drug concentration producing 50% inhibition of colony 5 formation) may be determined for each tested compound.

C3H/HeJ mice = test: in vivo
Description: (§1) This example provides directions for performing in vivo toxicity tests of the compounds of the invention on C3H/HeJ mice.
(§2) Acute toxicities of the compounds of this invention are evaluated on C3H/HeJ mice (body weight 18-22 g). The MTD40 (maximum tolerated dose at day 40) values are determined by the standard procedure described by Gad and Chengelis (see, for example, “Acute Toxicology Testing,” 2nd Ed., Shayne O. Gad and Christopher P. Chengelis, pp. 186-195 (Academic Press).) In the consecutive type studies, 2 mice are dosed at low and moderate doses of 40 and 100 mg/kg. If no severe and irreversible toxicity (euthanasia is required) occurs at these doses, a new pair of animals is initiated at 180 mg/kg, which is 1.8 times higher than 100 mg/kg. Sequential dosages (about 3 doses on 3 pairs of animals, i.e. 2 mice for each drug dose) are increased by a factor of 1.8 until severe and irreversible toxicity (euthanasia is required) occurred. Then another pair of animals is initiated at the highest nonlethal dosage, and successive dosages were increased by a factor of 1.15. The result of this exercise is two dosages, one apparently nonlethal and the other lethal if severe and irreversible toxicity occurs and euthanasia is required, separated by a factor of 1.15. Six mice are dosed at each dosage. If no severe and irreversible toxicity occurs at the lower dosage and at least one with severe and irreversible toxicity occurs at the higher dose, then the lower dose is considered to be the MTD. The compounds of this invention are administered to C3H/HeJ mice by intraperitoneal injection. Drug toxicity is evaluated on mice checked daily for 45 days. The toxicity parameters reported will be the MTD40.

[1] = tested on: mouse leukemia L1210 system; conditions: cited from earlier work
in vivo = conditions: C3H/HeJ, mouse, in vivo, ip
Description: as §1, §2

[2] = cited from earlier work
[3] = maximum tolerated dose, C3H/HeJ mice, intraperitoneal injection

For `CC[C@@]1(OC(=O)CCN2C(=O)c3ccccc3C2=O)C(=O)OCc2c1cc1n(c2=O)Cc2cc3ccccc3nc2-1` [000503 (1), Camptothecin-20S-Ester of 3-Phthalimidopropionic Acid], which “Survival (%) of HCT116” value (HCT116 cells; 10 nM) is on record?
The value was 95.24%.

What about the “Survival (%) of HCT116” value (HCT116 cells; 100 nM) of the same compound?
The value was 0%.

What about the MTD (C3H/HeJ mice; [3]) of the same compound?
The MTD was 150 mg/kg.

Which “Survival (%) of HCT116” value (HCT116 cells; 1 nM) does the source give for `CC[C@@]1(OC(=O)CCN2CCN(c3cccc(C(F)(F)F)c3)CC2)C(=O)OCc2c1cc1n(c2=O)Cc2cc3ccccc3nc2-1` [001101 (6), Camptothecin-20S-ester of 3-[4-(3-trifluoromethylphenyl)-1-piperazinyl]-propionic acid] here?
The value was 100%.

What about the “Survival (%) of HCT116” value (HCT116 cells; 10 nM) of the same compound?
Its value is 0%.

What about the “Survival (%) of HCT116” value (HCT116 cells; 100 nM) of the same compound?
Its value is 0%.

And the MTD (C3H/HeJ mice; [3])?
The MTD was 150 mg/kg.

With `CC[C@@]1(OC(=O)CCN2C(=O)c3cccc4c([N+](=O)[O-])ccc(c34)C2=O)C(=O)OCc2c1cc1n(c2=O)Cc2cc3ccccc3nc2-1` [001128 (4), Camptothecin-20S-Ester of 3-(4-Nitro-1,8-Naphthalimide)propionic Acid] as the compound, how does the MTD (C3H/HeJ mice; mouse, in vivo, ip) read?
The MTD was 150 mg/kg.

For `CC[C@@]1(OC(=O)CCN2CCN(c3cccc(OC)c3)CC2)C(=O)OCc2c1cc1n(c2=O)Cc2cc3ccccc3nc2-1` [001129 (8), Camptothecin-20S-ester of 3-[4-(3-methoxyphenyl)-1-piperazinyl]propionic Acid], which “Survival (%) of HCT116” value (HCT116 cells; 1 nM) is on record?
Its value is 73.26%.

And the “Survival (%) of HCT116” value (HCT116 cells; 10 nM)?
The value was 0%.

And the “Survival (%) of HCT116” value (HCT116 cells; 100 nM)?
Its value is 0%.

What about the MTD (C3H/HeJ mice; [3]) of the same compound?
Its MTD is 150 mg/kg.

What does the source list for `CC[C@@]1(OC(=O)CCN2CCN(Cc3ccccc3)CC2)C(=O)OCc2c1cc1n(c2=O)Cc2cc3ccccc3nc2-1` [001204 (7), Camptothecin-20s-ester of 3-[(4-benzyl)-1-piperazinyl]propionic Acid]?
Survival (%) of HCT116 (HCT116 cells; 1 nM): 64.04%; Survival (%) of HCT116 (HCT116 cells; 10 nM): 0%; Survival (%) of HCT116 (HCT116 cells; 100 nM): 0%

Which “Survival (%) of HCT116” value (HCT116 cells; 10 nM) does the source give for `CCC1(OC(=O)CCN2C(=O)C=CC2=O)C(=O)OCc2c1cc1n(c2=O)Cc2cc3ccccc3nc2-1` (stereo not drawn) [010104 (2), Camptothecin-20S-Ester of 3-Maleimidopropionic Acid] here?
The value was 95.54%.

And the “Survival (%) of HCT116” value (HCT116 cells; 100 nM)?
The value was 0%.

Which “Survival (%) of HCT116” value (HCT116 cells; 1 nM) does the source give for `CC[C@@]1(OC(=O)CCN2CCN(c3ccc([N+](=O)[O-])cc3)CC2)C(=O)OCc2c1cc1n(c2=O)Cc2cc3ccccc3nc2-1` [010105 (9), Camptothecin-20S-ester of 3-[4-(4-nitrophenyl)-1-piperazinyl]propionic Acid] here?
Its value is 94.14%.

What about the “Survival (%) of HCT116” value (HCT116 cells; 10 nM) of the same compound?
Its value is 0%.

What about the “Survival (%) of HCT116” value (HCT116 cells; 100 nM) of the same compound?
Its value is 0%.

Which results are given for `CC[C@@]1(OC(=O)CCN2CCN(c3ccccc3Cl)CC2)C(=O)OCc2c1cc1n(c2=O)Cc2cc3ccccc3nc2-1` [010117 (11), Camptothecin-20S-ester of 3-[4-(2-chlorophenyl)-1-piperazinyl]propionic Acid]?
Survival (%) of HCT116 (HCT116 cells; 1 nM): 100%; Survival (%) of HCT116 (HCT116 cells; 10 nM): 0%; Survival (%) of HCT116 (HCT116 cells; 100 nM): 0%

For `CC[C@@]1(OC(=O)CCN2CCN(c3ccc(F)cc3)CC2)C(=O)OCc2c1cc1n(c2=O)Cc2cc3ccccc3nc2-1` [010124 (12), Camptothecin-20S-ester of 3-[4-(4-fluorophenyl)-1-piperazinyl]propionic Acid], which “Survival (%) of HCT116” value (HCT116 cells; 1 nM) is on record?
The value was 100%.

What about the “Survival (%) of HCT116” value (HCT116 cells; 10 nM) of the same compound?
Its value is 0%.

What about the “Survival (%) of HCT116” value (HCT116 cells; 100 nM) of the same compound?
Its value is 0%.

Which “Survival (%) of HCT116” value (HCT116 cells; 10 nM) does the source give for `CC[C@@]1(O)C(=O)OCc2c1cc1n(c2=O)Cc2cc3ccccc3nc2-1` [Camptothecin, (S)-4-ethyl-4-hydroxy-1H-pyrano-[3′,4′:6,7]indolizinol[1,2-b]quinoline-3,14(4H, 12H)-dione] here?
Its value is 73.72%.

What about the “Survival (%) of HCT116” value (HCT116 cells; 100 nM) of the same compound?
Its value is 0%.

And the antitumor activity [1]?
Its antitumor activity is “antitumor activity”.

And the MTD at 45 days (in vivo)?
The MTD at 45 days was 12 mg/kg.

And the solubility in water [2]?
The solubility in water was “essentially insoluble”.

With `CCc1c2c(nc3ccc(OC(=O)N4CCC(N5CCCCC5)CC4)cc13)-c1cc3c(c(=O)n1C2)COC(=O)[C@]3(O)CC` [Irinotecan, 7-ethyl-10[4-(1-piperidino)-1-piperidino]carbonyloxy CPT, reference compound] as the compound, how does the “Survival (%) of HCT116” value (HCT116 cells; 100 nM) read?
Its value is 90.52%.

Reference: US6403604B1, “Nitrogen-based camptothecin derivatives” (California Pacific Medical Center, priority 2001, dated 2002)
